Source: PubChem BioAssay AID256 (DTP/NCI, 2004)
Several values for one entry are separate records, joined by “and”; a condition that tells them apart may be missing. Equal values may be shown once. Toxic doses and inconclusive results are not listed. Rule for the calls: active = survival T/C of 150% or more; inactive = T/C below 125% in these data.

System: CD2F1 mice, L1210 leukemia ip, survival T/C
Assay: NCI In Vivo Anticancer Drug Screen. Data for tumor model L1210 Leukemia (intraperitoneal) in CD2F1 (CDF1) mice
Settings: higher = longer survival
Outline: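 Mice carrying a transplanted tumor received test compound or vehicle alone. The value is the measurement in the treated group divided by that in the vehicle-treated control group.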

[1] = endpoint: mean survival time, dose: 100.0 mg/kg/injection, schedule: Q04DX003 (ip), vehicle: saline with Tween-80
[2] = endpoint: mean survival time, dose: 100.0 mg/kg/injection, schedule: Q01DX009 (ip), vehicle: saline with Tween-80
[3] = endpoint: mean survival time, dose: 200.0 mg/kg/injection, schedule: Q01DX009 (ip), vehicle: saline with Tween-80
[4] = endpoint: mean survival time, dose: 200.0 mg/kg/injection, schedule: Q04DX003 (ip), vehicle: saline with Tween-80
[5] = endpoint: mean survival time, dose: 400.0 mg/kg/injection, schedule: Q04DX003 (ip), vehicle: saline with Tween-80
[6] = endpoint: mean survival time, dose: 100.0 mg/kg/injection, schedule: Q04DX002 (ip), vehicle: saline with Tween-80
[7] = endpoint: mean survival time, dose: 200.0 mg/kg/injection, schedule: Q04DX002 (ip), vehicle: saline with Tween-80
[8] = endpoint: mean survival time, dose: 400.0 mg/kg/injection, schedule: Q04DX002 (ip), vehicle: saline with Tween-80
[9] = endpoint: mean survival time, dose: 50.0 mg/kg/injection, schedule: Q01DX009 (ip), vehicle: saline with Tween-80

Measured: T/C

CCCCCn1c(Cl)c(/C=N/NC(N)=S)c2ccccc21
inactive: endpoint: mean survival time, dose: 25.0 mg/kg/injection, schedule: Q04DX003 (ip), vehicle: saline with Tween-80 102 % of control | endpoint: mean survival time, dose: 50.0 mg/kg/injection, schedule: Q04DX003 (ip), vehicle: saline with Tween-80 93 % of control | [1] 96 % of control

CC/C(C)=C(/C(=O)O)c1ccccc1
inactive: [2] 95 % of control | [3] 98 % of control | endpoint: mean survival time, dose: 400.0 mg/kg/injection, schedule: Q01DX009 (ip), vehicle: saline with Tween-80 97 % of control

O=C1CC(NC(=O)C(F)(F)F)C(=O)O1 (stereo not given)
inactive: endpoint: mean survival time, dose: 100.0 mg/kg/injection, schedule: Q04DX003 (ip), vehicle: saline 94 % of control | endpoint: mean survival time, dose: 200.0 mg/kg/injection, schedule: Q04DX003 (ip), vehicle: saline 95 % of control | endpoint: mean survival time, dose: 400.0 mg/kg/injection, schedule: Q04DX003 (ip), vehicle: saline 94 % of control

c1ccc2c(c1)[As]=c1ccccc1=[As]2 (stereo not given)
inactive: endpoint: median survival time, dose: 1.5 mg/kg/injection, schedule: Q01DX009 (ip), vehicle: saline with Tween-80 108 % of control | endpoint: median survival time, dose: 3.0 mg/kg/injection, schedule: Q01DX009 (ip), vehicle: saline with Tween-80 101 % of control | endpoint: median survival time, dose: 6.0 mg/kg/injection, schedule: Q01DX009 (ip), vehicle: saline with Tween-80 102 % of control and 104 % of control | endpoint: median survival time, dose: 12.0 mg/kg/injection, schedule: Q01DX009 (ip), vehicle: saline with Tween-80 113 % of control and 109 % of control | endpoint: median survival time, dose: 24.0 mg/kg/injection, schedule: Q01DX009 (ip), vehicle: saline with Tween-80 106 % of control | endpoint: median survival time, dose: 48.0 mg/kg/injection, schedule: Q01DX009 (ip), vehicle: saline with Tween-80 100 % of control

CC(=O)OCC1OC(c2cccc3c2c2ccccc2n3S(=O)(=O)c2ccccc2)C(O)C1O (stereo not given)
inactive: endpoint: median survival time, dose: 12.5 mg/kg/injection, schedule: Q01DX005 (ip), vehicle: saline with Tween-80 110 % of control | endpoint: median survival time, dose: 25.0 mg/kg/injection, schedule: Q01DX005 (ip), vehicle: saline with Tween-80 107 % of control | endpoint: median survival time, dose: 50.0 mg/kg/injection, schedule: Q01DX005 (ip), vehicle: saline with Tween-80 96 % of control | endpoint: median survival time, dose: 100.0 mg/kg/injection, schedule: Q01DX005 (ip), vehicle: saline with Tween-80 98 % of control | endpoint: median survival time, dose: 200.0 mg/kg/injection, schedule: Q01DX005 (ip), vehicle: saline with Tween-80 98 % of control

COc1cc2c3c(c1OC)C1(C=CC(=O)C=C1)CC3N(C(C)=O)CC2 (stereo not given)
inactive: [1] 97 % of control | [4] 95 % of control | [5] 94 % of control

Cc1oc([N+](=O)[O-])cc1C(=O)O
inactive: [1] 102 % of control | [4] 102 % of control | [5] 115 % of control

O=C(Nc1ccc2ccccc2c1)c1ccc(Cl)cc1Cl
inactive: [1] 96 % of control | [4] 98 % of control | [5] 95 % of control

COC(=O)C1CCCCC1C(=O)OC (stereo not given)
inactive: [6] 97 % of control | [1] 104 % of control | [7] 97 % of control | [4] 98 % of control | [8] 101 % of control

CCCCCC(=O)CCCC
inactive: [9] 109 % of control | [2] 102 % of control | [3] 105 % of control

CN(C)Cc1ccc(C(C)(C)C)cc1Br
inactive: endpoint: mean survival time, dose: 12.5 mg/kg/injection, schedule: Q01DX009 (ip), vehicle: water 98 % of control | endpoint: mean survival time, dose: 25.0 mg/kg/injection, schedule: Q01DX009 (ip), vehicle: water 95 % of control | endpoint: mean survival time, dose: 50.0 mg/kg/injection, schedule: Q01DX009 (ip), vehicle: water 98 % of control | endpoint: mean survival time, dose: 100.0 mg/kg/injection, schedule: Q01DX009 (ip), vehicle: water 98 % of control | endpoint: mean survival time, dose: 200.0 mg/kg/injection, schedule: Q01DX009 (ip), vehicle: water 104 % of control

CC12CCC(C/C1=N\O)C2(C)C (stereo not given)
inactive: endpoint: mean survival time, dose: 12.5 mg/kg/injection, schedule: Q01DX009 (ip), vehicle: saline with Tween-80 106 % of control | endpoint: mean survival time, dose: 25.0 mg/kg/injection, schedule: Q01DX009 (ip), vehicle: saline with Tween-80 97 % of control | [9] 102 % of control

C1C[N-]CC[N-]1.[Cl][Pt+2][Cl]
inactive: endpoint: mean survival time, dose: 7.8 mg/kg/injection, schedule: Q04DX003 (ip), vehicle: saline with Tween-80 97 % of control | endpoint: mean survival time, dose: 62.5 mg/kg/injection, schedule: Q04DX003 (ip), vehicle: saline with Tween-80 90 % of control | endpoint: mean survival time, dose: 125.0 mg/kg/injection, schedule: Q04DX003 (ip), vehicle: saline with Tween-80 94 % of control

CN1CCCC(OC(=O)C(c2ccccc2)C2(O)CCCC2)C1 (stereo not given)
inactive: endpoint: mean survival time, dose: 75.0 mg/kg/injection, schedule: Q01DX001 (ip), vehicle: saline 98 % of control

Cc1cc(C)c(N(CC(=O)O)S(=O)(=O)c2ccccc2)c(C)c1N(CC(=O)O)S(=O)(=O)c1ccccc1
inactive: endpoint: mean survival time, dose: 100.0 mg/kg/injection, schedule: Q01DX001 (ip), vehicle: saline with Tween-80 97 % of control | endpoint: mean survival time, dose: 200.0 mg/kg/injection, schedule: Q01DX001 (ip), vehicle: saline with Tween-80 105 % of control | endpoint: mean survival time, dose: 400.0 mg/kg/injection, schedule: Q01DX001 (ip), vehicle: saline with Tween-80 103 % of control

O=Cc1cc(Cl)cc(Cl)c1O
inactive: [1] 96 % of control | [4] 98 % of control

Cn1cnc([N+](=O)[O-])c1Sc1ncnc2c1ncn2C1CC(O)C(CO)O1 (stereo not given)
inactive: endpoint: median survival time, dose: 3.75 mg/kg/injection, schedule: Q01DX005 (ip), vehicle: saline with Tween-80 104 % of control | endpoint: median survival time, dose: 7.5 mg/kg/injection, schedule: Q01DX005 (ip), vehicle: saline with Tween-80 106 % of control | endpoint: median survival time, dose: 15.0 mg/kg/injection, schedule: Q01DX005 (ip), vehicle: saline with Tween-80 103 % of control | endpoint: median survival time, dose: 30.0 mg/kg/injection, schedule: Q01DX005 (ip), vehicle: saline with Tween-80 106 % of control | endpoint: median survival time, dose: 60.0 mg/kg/injection, schedule: Q01DX005 (ip), vehicle: saline with Tween-80 118 % of control

O=C(O)c1cc2c([nH]1)=C(O)NN(O)C=2
inactive: endpoint: mean survival time, dose: 12.5 mg/kg/injection, schedule: Q04DX002 (ip), vehicle: saline with Tween-80 101 % of control | endpoint: mean survival time, dose: 25.0 mg/kg/injection, schedule: Q04DX002 (ip), vehicle: saline with Tween-80 101 % of control | endpoint: mean survival time, dose: 50.0 mg/kg/injection, schedule: Q04DX002 (ip), vehicle: saline with Tween-80 111 % of control

O=C(O)COC(C[N+](=O)[O-])C(Cl)(Cl)Cl (stereo not given)
inactive: [1] 93 % of control | [4] 104 % of control | [5] 98 % of control

CCC[CH2][Sn]1([CH2]CCC)[O]C(=O)C2CC=CCC2C(=O)[O]1 (stereo not given)
inactive: endpoint: mean survival time, dose: 100.0 mg/kg/injection, schedule: Q01DX001 (ip), vehicle: saline 102 % of control | endpoint: mean survival time, dose: 200.0 mg/kg/injection, schedule: Q01DX001 (ip), vehicle: saline 104 % of control

COC(=O)C(Br)C1CCCCC1 (stereo not given)
inactive: [9] 95 % of control | [2] 102 % of control | [1] 100 % of control | [3] 93 % of control | [4] 102 % of control

Cc1cc(S(=O)(=O)F)cc(Cl)c1OC(=S)N(C)C
inactive: [6] 96 % of control | [7] 96 % of control | [8] 92 % of control
